One may read the GI50 as the concentration giving 50% growth inhibition.

We go through one compound from patent US10308631B2, “Selective anti-cancer compounds” (NATIONAL UNIVERSITY OF SINGAPORE, priority 2015, dated 2019).

Holding throughout (assay): MTT growth inhibition (GI50)
What all share (type): cell-based

The test system of assay [1] is HT29. The note with it: Homo sapiens, HT-29, HT29, colon cancer, 72 h. On the procedure: (§1) Having shown that Compound 1 and its derivatives are effective against HeLa cervical cancer cells and human fibroblast BJ cell lines, Compound 1 was then tested against a panel of thirty different human cancer cells lines derived from gastric, colon, liver, breast, lung and cervical tumours and five different human normal cell lines, which were normal fibroblast cell lines (BJ normal, IMR90, WI38) and retinal pigmented epithelium cell lines (ARPE-19, hTert-immortalized RPE-1).
(§2) The cell lines detailed in Table 2, below, were cultured in the media shown and treated with Compound 1 at a range of different concentrations (from 0.1 μM to 10 μM) for 72 h in triplicate and a mean concentration value for Compound 1 to achieve 50% growth inhibition (GI50) in each cell line was determined by use of the MTT assay.
(§3) The MTT assay was performed by adding thiazolyl blue tetrazolium bromide (MTT reagent, Invitrogen) at a concentration of 0.5 mg/mL to each cell culture and the resulting mixture incubated for 4 h at 37° C. The medium was then removed, and the blue dye remaining in each well was dissolved in DMSO by mixing with a microplate mixer. The absorbance of each well at 540 nm and 660 nm was measured using a microplate reader (Benchmark plus, BIO-RAD). The optical density (OD) values were calculated by subtracting the absorbance at 660 nm from the absorbance at 540 nm. Mean OD values from control cells containing only DMSO treated wells were set as 100%. The resulting GI50 values (in μM) are set out in Table 2 below.

In assay [2] the test system is SCH. Particulars: Homo sapiens, gastric cancer, 72 h. On the procedure: as §1, §2, §3
The subject of assay [3] is Hep3. The note with it: Homo sapiens, Hep3, liver cancer, 72 h. On the procedure:
as §1, §2, §3

For assay [4], the system named is IST1. The note with it: Homo sapiens, IST1, gastric cancer, 72 h. On the procedure: as §1, §2, §3
Assay [5] concerns NUGC4. The note with it: Homo sapiens, NUGC-4, NUGC4, gastric cancer, 72 h. As to the method: as §1, §2, §3
In assay [6] the test system is NCC24. Particulars: Homo sapiens, NCC24, gastric cancer, 72 h. On the procedure: as §1, §2, §3
Assay [7] relates to DLD1. The note with it: Homo sapiens, DLD-1, DLD1, colon cancer, 72 h. On the procedure: as §1, §2, §3
The test system of assay [8] is ARPE-19. Particulars: Homo sapiens, ARPE-19, normal cell line, 72 h. On the procedure:
as §1, §2, §3

The test system of assay [9] is SNU1750. Particulars: Homo sapiens, SNU1750, gastric cancer, 72 h. As to the method:
as §1, §2, §3

The subject of assay [10] is SGCC-GC38. Particulars: Homo sapiens, SGCC-GC38, gastric cancer, 72 h. On the procedure: as §1, §2, §3
For assay [11], the system named is NCC19. Particulars: Homo sapiens, NCC19, gastric cancer, 72 h. On the procedure:
as §1, §2, §3

Assay [12] relates to AGS. Particulars: Homo sapiens, gastric cancer, 72 h. As to the method: as §1, §2, §3
In assay [13] the test system is SNU449. The note with it: Homo sapiens, SNU-449, SNU449, liver cancer, 72 h. As to the method: as §1, §2, §3

The structures appear in SMILES notation.

For `N#C/C(=C\c1cccc2cnccc12)c1c[nH]c2ccccc12` [Compound 1, (Z)-2-(1H-indol-3-yl)-3-(isoquinolin-5-yl)acrylonitrile], the 50% growth inhibitory concentration (GI50) in assay [1] was 900 nM; in assay [2], 1700 nM; in assay [3], 3700 nM; in assay [4], 2200 nM; in assay [5] it was greater than 10000 nM; in assay [6], 1200 nM. The GI50 in assay [7] was 1200 nM; in assay [8], greater than 10000 nM; in assay [9], 700 nM; in assay [10] it was 1900 nM; in assay [11] it was 4600 nM; in [12], 1100 nM. The compound also registered a 50% growth inhibitory concentration (GI50) in [13] of 2300 nM.
